These results are taken from patent US11780845B2 (Relay Therapeutics, Inc., priority 2019, dated 2023).

Each structure is given as a SMILES string. pIC50: −log10 of the molar value.

One assay concerns SNU16 cells. The assay can be described thus: SNU16 Cancer Cell Line Proliferation Assay. In kind it is cell-based. The conditions noted are these: Homo sapiens; SNU-16 cells. Here is the method:
Compounds of the present invention were also tested in a SNU16 Cancer Cell Line Proliferation Assay, Test compounds were prepared in a 10 mM DMSO stock solution. 45 uL of stock solution was transferred to a 384 well plate, and a 3-fold 11-point dolution was performed. SNU16 cells in a 384 well cell culture plate were seeded and incubated at 37 degrees for 24 hours. 40 nL of each concentration of compound was transferred from the compound plate to a corresponding well in the cell culture plate by Echo550 liquid handler. The plates were incubated for 96 hours, then equilibrated to room temperature for 15 minutes. 20 uL of CellTiter Glo reagent is added into each well, then the plate was shaken gently for 30 minutes at room temperature. Chemiluminescence was then read on an EnVision reader.

The target in another assay is FGFR2 (Homo sapiens (Human), UniProt P21802). The assay can be described thus: FGFR2 Biochemical Caliper Assay. As to the method:
Compounds of the present invention were also tested in a FGFR2 Biochemical Caliper Assay. Compounds were prepared in 10 mM DMSO solution and serially diluted into 11 concentrations by 3-fold dilution. […] 5 uL of ATP solution (100 uM) was added to start the reaction and the plate was incubated for 90 minutes, then 70 uL of stopping buffer (0.5M EDTA) was added to terminate the reaction. Each well was analyzed using EZ reader.

FGFR2, sequence (P21802 22-821): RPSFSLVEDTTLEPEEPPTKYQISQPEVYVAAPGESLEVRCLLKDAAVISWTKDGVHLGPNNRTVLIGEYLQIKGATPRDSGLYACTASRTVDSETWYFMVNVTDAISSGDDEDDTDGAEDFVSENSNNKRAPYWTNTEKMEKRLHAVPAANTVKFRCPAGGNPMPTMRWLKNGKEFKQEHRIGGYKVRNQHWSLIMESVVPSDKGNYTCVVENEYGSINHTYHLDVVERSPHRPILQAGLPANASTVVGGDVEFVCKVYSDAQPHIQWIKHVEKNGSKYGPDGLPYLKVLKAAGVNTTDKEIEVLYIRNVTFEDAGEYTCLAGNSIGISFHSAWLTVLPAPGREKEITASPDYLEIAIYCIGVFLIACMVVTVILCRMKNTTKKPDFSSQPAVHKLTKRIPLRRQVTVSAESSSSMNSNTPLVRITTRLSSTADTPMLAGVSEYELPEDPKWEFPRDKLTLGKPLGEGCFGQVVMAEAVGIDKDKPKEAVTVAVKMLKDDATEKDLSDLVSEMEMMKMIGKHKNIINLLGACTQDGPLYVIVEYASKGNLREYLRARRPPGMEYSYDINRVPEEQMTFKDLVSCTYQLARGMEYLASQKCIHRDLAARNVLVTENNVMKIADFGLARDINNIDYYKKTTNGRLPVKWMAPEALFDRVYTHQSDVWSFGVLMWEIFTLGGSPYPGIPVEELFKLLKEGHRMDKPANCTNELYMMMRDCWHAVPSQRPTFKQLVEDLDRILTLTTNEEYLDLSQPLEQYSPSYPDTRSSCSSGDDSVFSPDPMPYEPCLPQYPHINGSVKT

With `C=C(C)C(=O)Nc1ccc(-c2c(-c3ccc(C(=O)N4CCC[C@@H](OC)C4)cc3)c3c(N)ncnc3n2C)cc1` [Example 388], the figures for the pIC50 in the assay with SNU16 cells and against FGFR2 were 6.60 to 7.00 and 6.00 to 6.60, respectively.
For `C=C(C)C(=O)Nc1ccc(-c2c(-c3ccc(Oc4nccc(C)n4)c(F)c3)c3c(N)ncnc3n2CC)cc1` [Example 494] the same measures were at least 7.00 and over 7.00.
As to `C=C(C)C(=O)Nc1ccc(-c2c(-c3ccc(C(=O)N(C)C)nc3)c3c(N)ncnc3n2C)cc1` [Example 143], the figures for the negative logarithm of the IC50 (pIC50) in the assay with SNU16 cells and on FGFR2 were 6.00 to 6.60 and 4.00 to 6.00, respectively.
For `C=CC(=O)N1CCC(c2c(-c3ccc(SC4CCCC4)cc3)c3c(N)ncnc3n2C)C1` (stereo not drawn) [Example 749] the same measures were at least 7.00 and over 7.00.
For `C=C(C)C(=O)Nc1ccc(-c2c(-c3cc(F)c(Oc4nccc(C)n4)c(F)c3)c3c(N)ncnc3n2C)cc1` [Example 447] the same measures were at least 7.00 and over 7.00.
For `C=C(C)C(=O)Nc1ccc(-c2c(-c3ccc(Oc4ccn(C)n4)c(OC)c3)c3c(N)ncnc3n2C)cc1` [Example 100], in that order: 6.60 to 7.00 and 6.00 to 6.60.
Take `C=C(C)C(=O)Nc1ccc(-c2c(-c3ccc(C(=O)N4CCCC(C)C4)cc3)c3c(N)ncnc3n2C)cc1` (stereo not drawn) [Example 255]: the pIC50 was at least 7.00 with SNU16 cells and over 7.00 against FGFR2.
For `C=C(C)C(=O)Nc1ccc(-c2c(-c3ccc(C(=O)N4CC5CC5C4)cc3)c3c(N)ncnc3n2C)cc1` (stereo not drawn) [Example 237], in that order: 6.60 to 7.00 and 6.60 to 7.00.
For `C=CC(=O)N1CCC(c2c(-c3ccc(COC)cc3)c3c(N)ncnc3n2C)C1` (stereo not drawn) [Example 721] the same measures were 6.00 to 6.60 and 6.00 to 6.60.
For `C=C(C)C(=O)Nc1ccc(-c2c(-c3ccc(Oc4ccc(F)cn4)c(F)c3)c3c(N)ncnc3n2C)cc1` [Example 114] the same measures were 6.60 to 7.00 and 6.00 to 6.60.
`C=CC(=O)N1CCC(c2c(-c3ccc(C(=O)N4CCOCC4)cc3)c3c(N)ncnc3n2C)C1` (stereo not drawn) [Example 722]: the negative-log IC50 (pIC50) in the assay with SNU16 cells and against FGFR2 was 4.00 to 6.00 throughout.
As for `C=C(C)C(=O)Nc1ccc(-c2c(-c3ccc(Oc4cccc(CO)n4)cc3)c3c(N)ncnc3n2C)cc1` [Example 418], the negative logarithm of the IC50 (pIC50) with SNU16 cells was at least 7.00; on FGFR2, over 7.00.
For `C=C(C)C(=O)Nc1ccc(-c2c(-c3ccc(C(=O)N4CCC5CC54)cc3)c3c(N)ncnc3n2C)c(F)c1` (stereo not drawn) [Example 461], in that order: at least 7.00 and over 7.00.
For `C=C(C)C(=O)Nc1ccc(-c2c(-c3ccc(S(=O)(=O)NC4CCC4)cc3)c3c(N)ncnc3n2C)cc1` [Example 311], in that order: 6.00 to 6.60 and 6.00 to 6.60.
With `C=CC(=O)N1CCC(c2c(C3=CCN(C(C)=O)CC3(C)C)c3c(N)ncnc3n2C)C1` (stereo not drawn) [Example 783], the results for the pIC50 in the assay on SNU16 cells and against FGFR2 were 4.00 to 6.00 and 6.60 to 7.00, respectively.
As to `C=CC(=O)Nc1ccc(-c2c(-c3ccc4c(c3)CCCN4C)c3c(N)ncnc3n2C)cc1` [Example 211], the negative logarithm of the IC50 (pIC50) with SNU16 cells is at least 7.00; on FGFR2, over 7.00.
For `C=CC(=O)N1CCC(c2c(-c3ccc(-c4ccno4)cc3)c3c(N)ncnc3n2C)C1` (stereo not drawn) [Example 768] the same measures were 6.60 to 7.00 and 6.00 to 6.60.
For `C=C(C)C(=O)Nc1ccc(-c2c(-c3ccc(Oc4ccn(C)n4)cc3)c3c(N)ncnc3n2C)cc1` [Example 267] the same measures were at least 7.00 and over 7.00.
For `C=C(C)C(=O)Nc1ccc(-c2c(-c3ccc(Oc4ncc(F)cn4)cn3)c3c(N)ncnc3n2C)cc1` [Example 474] the same measures were at least 7.00 and over 7.00.
In the case of `C=C(C)C(=O)Nc1ccc(-c2c(C3=CC[C@H](Oc4ccn(C)n4)CC3)c3c(N)ncnc3n2C)cc1` (single isomer, unassigned) [Example 550], the pIC50 was at least 7.00 in the assay with SNU16 cells and 6.60 to 7.00 against FGFR2.
For `C=C(C)C(=O)Nc1ccc(-c2c(-c3ccc(C(=O)NC4CCOC4)cc3)c3c(N)ncnc3n2C)cc1` (stereo not drawn) [Example 283] the same measures were at least 7.00 and over 7.00.
For `C=C(C)C(=O)Nc1ccc(-c2c(-c3ccc(C(=O)N4CCCC4)cc3OC)c3c(N)ncnc3n2C)cc1` [Example 569], in that order: 6.60 to 7.00 and 6.60 to 7.00.
For `C=CC(=O)N1CCC(c2c(-c3ccc(Oc4ncccn4)cc3)c3c(N)ncnc3n2CCN(C)C)C1` (stereo not drawn) [Example 707] the same measures were 4.00 to 6.00 and 4.00 to 6.00.
As to `C=CC(=O)N1CCC(c2[nH]c3ncnc(N)c3c2-c2ccc(Oc3ccc(C)cn3)cc2)C1` (stereo not drawn) [Example 775], the negative-log IC50 (pIC50) with SNU16 cells was 4.00 to 6.00; at FGFR2 it was 6.60 to 7.00.
For `C=CC(=O)Nc1ccc(-c2c(-c3ccc(ON4CCCC4)cc3)c3c(N)ncnc3n2C)c(C)c1` [Example 216] the same measures were at least 7.00 and over 7.00.
For `C=C(C)C(=O)Nc1ccc(-c2c(-c3ccc(C(=O)NC4CCOC4)c(OC)c3)c3c(N)ncnc3n2C)cc1` (stereo not drawn) [Example 386] the same measures were 6.60 to 7.00 and over 7.00.
For `C=C(C)C(=O)Nc1ccc(-c2c(-c3ccc(C(=O)NCC#N)cc3)c3c(N)ncnc3n2C)cc1` [Example 337], the pIC50 in the assay with SNU16 cells and on FGFR2 was 6.00 to 6.60 each time.
With `C=CC(=O)N1CCC(c2c(-c3ccc(OC4CC4)cc3)c3c(N)ncnc3n2C)C1` (stereo not drawn) [Example 756], the pIC50 with SNU16 cells was at least 7.00; on FGFR2, 6.60 to 7.00.
For `C=C(C)C(=O)Nc1ccc(-c2c(-c3ccc(C(=O)NCC4CCC4)c(F)c3)c3c(N)ncnc3n2C)cc1` [Example 413] the same measures were at least 7.00 and over 7.00.
For `C=CC(=O)Nc1ccc(-c2c(-c3ccc(C(=O)N4CCCC4)c(OC)c3)c3c(N)ncnc3n2C)cc1` [Example 161] the same measures were at least 7.00 and over 7.00.
As for `C=CC(=O)N1CCC(c2c(-c3cnn(C4CNC4)c3)c3c(N)ncnc3n2C)C1` (stereo not drawn) [Example 793], the pIC50 was 4.00 to 6.00 in the assay with SNU16 cells and 6.00 to 6.60 against FGFR2.
For `C=CC(=O)N1CCC(n2cc(-c3c(-c4ccc(Oc5cccc(OC)n5)cc4)c4c(N)ncnc4n3C)cn2)CC1` [Example 650], in that order: at least 7.00 and over 7.00.
For `C=C(C)C(=O)Nc1ccc(-c2c(-c3ccc4c(c3)CCCN4C)c3c(N)ncnc3n2C)cc1` [Example 207], the negative-log IC50 (pIC50) in the assay on SNU16 cells and on FGFR2 was 6.00 to 6.60 each time.
For `C=CC(=O)Nc1c(F)cc(-c2c(-c3ccc(C(=O)N4CCCC4)cc3)c3c(N)ncnc3n2C)cc1F` [Example 219], the pIC50 with SNU16 cells is at least 7.00; against FGFR2, over 7.00.
For `C=C(C)C(=O)Nc1ccc(-c2c(-c3ccc(Oc4cnn(C)c4)cc3)c3c(N)ncnc3n2C)cc1` [Example 541], in that order: 6.00 to 6.60 and 4.00 to 6.00.
For `C/C(=C\CN(C)C)C(=O)N1CC(n2cc(-c3c(-c4ccc(Oc5cccc(C)n5)cc4)c4c(N)ncnc4n3C)cn2)C1` [Example 671], in that order: 4.00 to 6.00 and 6.00 to 6.60.
For `C=CC(=O)N1CC=C(c2c(-c3ccc(Oc4cccc(C)n4)c(OC)c3)c3c(N)ncnc3n2C)C1` [Example 667] the same measures were 6.60 to 7.00 and 6.60 to 7.00.
Take `C=CC(=O)N1CC[C@@H](c2[nH]c3ncnc(N)c3c2-c2ccc(Oc3ncccn3)cc2)C1` [Example 713]: the values for the pIC50 in the assay on SNU16 cells and against FGFR2 were at least 7.00 and over 7.00, respectively.
On to `C=C(C)C(=O)Nc1ccc(-c2c(-c3ccc(C(=O)NCC(F)(F)F)c(OC)c3)c3c(N)ncnc3n2C)cc1` [Example 568], for which the pIC50 is at least 7.00 in the assay on SNU16 cells and over 7.00 against FGFR2.
For `C=C(C)C(=O)Nc1ccc(-c2c(-c3ccc(C(=O)N4CCCC4)cc3)c3c(N)ncnc3n2C)c(C#N)c1` [Example 435], in that order: 6.60 to 7.00 and over 7.00.
For the compound `C=C(C)C(=O)Nc1ccc(-c2c(-c3ccc(C(=O)NCC(C)(C)OC)c(F)c3)c3c(N)ncnc3n2C)cc1` [Example 416], the pIC50 in the assay on SNU16 cells is at least 7.00; on FGFR2 it was over 7.00.
For `C=C(C)C(=O)Nc1ccc(-c2c(-c3ccc(C(=O)N4CC5CCCC5C4)cc3)c3c(N)ncnc3n2C)cc1` (stereo not drawn) [Example 154], in that order: at least 7.00 and 6.60 to 7.00.
Regarding `C=CC(=O)N1CCC(c2c(-c3ccc(C(=O)C4CCCC4)cc3)c3c(N)ncnc3n2C)C1` (stereo not drawn) [Example 784], the negative logarithm of the IC50 (pIC50) in the assay with SNU16 cells and on FGFR2 was 4.00 to 6.00 in each case.
Turning to `C=C(C)C(=O)Nc1ccc(-c2c(-c3ccc(C(=O)N4CCCC4)cc3)c3c(N)ncnc3n2C)cc1` [Example 95], the negative-log IC50 (pIC50) is at least 7.00 in the assay on SNU16 cells and 6.60 to 7.00 against FGFR2.
For `C=C(C)C(=O)Nc1ccc(-c2c(-c3ccc(C(=O)N(C)Cc4cnn(C)c4)cc3)c3c(N)ncnc3n2C)cc1` [Example 294], in that order: 6.00 to 6.60 and 4.00 to 6.00.
For `C=CC(=O)N1CCC(c2c(-c3ccc(OC4CCC4)cc3)c3c(N)ncnc3n2C)C1` (stereo not drawn) [Example 758], in that order: at least 7.00 and over 7.00.
For `C=C(C)C(=O)Nc1ccc(-c2c(-c3ccc(Oc4cccc(N)n4)cc3)c3c(N)ncnc3n2C)cc1` [Example 379] the same measures were at least 7.00 and over 7.00.
Take `C=CC(=O)N1CC=C(c2c(-c3ccc(Oc4ncccn4)cc3)c3c(N)ncnc3n2C)CC1` [Example 680]: the negative-log IC50 (pIC50) was at least 7.00 with SNU16 cells and over 7.00 against FGFR2.

By pIC50 is commonly meant −log10 of the IC50, conventionally taken in molar units. Read a low pIC50 as a high IC50.
